Results reported in ChEMBL document CHEMBL1149819, “Synthesis and in vivo anti-mutagenic activity of novel melatonin derivatives” (2008).

Key:
Conditions in all cases: route intragastric
Mus musculus [1] = experiment: Antimutagenic activity against cyclophosphamide-induced mutagenicity in Albino mouse liver assessed as RNA level per gram of tissue at 14.16 mg/kg administered intragastrically for 1 week; assay type: functional
Mus musculus [2] = experiment: Antimutagenic activity in mouse brain assessed as peroxidase activity per microgram of tissue at 14.16 mg/kg administered intragastrically for 1 week; assay type: functional
Mus musculus [3] = experiment: Antimutagenic activity in Albino mouse brain assessed as DNA level per gram of tissue at 14.16 mg/kg administered intragastrically for 1 week; assay type: functional
Mus musculus [4] = experiment: Antimutagenic activity in Albino mouse testes assessed as DNA level per gram of tissue at 14.16 mg/kg administered intragastrically for 1 week; assay type: functional, Testis
Mus musculus [5] = experiment: Antimutagenic activity in Albino mouse liver assessed as RNA level per gram of tissue at 14.16 mg/kg administered intragastrically for 1 week; assay type: functional
Mus musculus [6] = experiment: Antimutagenic activity in Albino mouse kidney assessed as RNA level per gram of tissue at 14.16 mg/kg administered intragastrically for 1 week; assay type: functional
Mus musculus [7] = experiment: Antimutagenic activity against cyclophosphamide-induced mutagenicity in mouse testes assessed as protein level per gram of tissue at 14.16 mg/kg administered intragastrically for 1 week; assay type: functional, Testis
Mus musculus [8] = experiment: Antimutagenic activity against cyclophosphamide-induced mutagenicity in Albino mouse testes assessed as DNA level per gram of tissue at 14.16 mg/kg administered intragastrically for 1 week; assay type: functional, Testis
Mus musculus [9] = experiment: Antimutagenic activity in mouse brain assessed as protein level per gram of tissue at 14.16 mg/kg administered intragastrically for 1 week; assay type: functional
Mus musculus [10] = experiment: Antimutagenic activity against cyclophosphamide-induced mutagenicity in mouse kidney assessed as protein level per gram of tissue at 14.16 mg/kg administered intragastrically for 1 week; assay type: functional
Mus musculus [11] = experiment: Inhibition of cyclophosphamide-induced increase in micronuclei/polychromatic erythrocytes count in mouse at 18.38 mg/kg administered intragastrically for 1 week by micronuclei assay; assay type: functional; set-up: scale not given: the % may be the effect or the level left
Mus musculus [12] = experiment: Antimutagenic activity in Albino mouse kidney assessed as DNA level per gram of tissue at 14.16 mg/kg administered intragastrically for 1 week; assay type: functional
Mus musculus [13] = experiment: Antimutagenic activity against cyclophosphamide-induced mutagenicity in Albino mouse kidney assessed as RNA level per gram of tissue at 14.16 mg/kg administered intragastrically for 1 week; assay type: functional
Mus musculus [14] = experiment: Antimutagenic activity against cyclophosphamide-induced mutagenicity in mouse brain assessed as cholinesterase activity per microgram of tissue at 14.16 mg/kg administered intragastrically for 1 week; assay type: functional
Mus musculus [15] = experiment: Antimutagenic activity in mouse kidney assessed as protein level per gram of tissue at 14.16 mg/kg administered intragastrically for 1 week; assay type: functional
Mus musculus [16] = experiment: Antimutagenic activity in Albino mouse testes assessed as RNA level per gram of tissue at 14.16 mg/kg administered intragastrically for 1 week; assay type: functional, Testis
Mus musculus [17] = experiment: Antimutagenic activity against cyclophosphamide-induced mutagenicity in Albino mouse liver assessed as DNA level per gram of tissue at 14.16 mg/kg administered intragastrically for 1 week; assay type: functional
Mus musculus [18] = experiment: Antimutagenic activity against cyclophosphamide-induced mutagenicity in Albino mouse brain assessed as RNA level per gram of tissue at 14.16 mg/kg administered intragastrically for 1 week; assay type: functional
Mus musculus [19] = experiment: Antimutagenic activity in mouse liver assessed as protein level per gram of tissue at 14.16 mg/kg administered intragastrically for 1 week; assay type: functional
Mus musculus [20] = experiment: Antimutagenic activity against cyclophosphamide-induced mutagenicity in mouse brain assessed as protein level per gram of tissue at 14.16 mg/kg administered intragastrically for 1 week; assay type: functional
Mus musculus [21] = experiment: Antimutagenic activity against cyclophosphamide-induced mutagenicity in mouse brain assessed as peroxidase activity per microgram of tissue at 14.16 mg/kg administered intragastrically for 1 week; assay type: functional
Mus musculus [22] = experiment: Antimutagenic activity against cyclophosphamide-induced mutagenicity in Albino mouse testes assessed as RNA level per gram of tissue at 14.16 mg/kg administered intragastrically for 1 week; assay type: functional, Testis
Mus musculus [23] = experiment: Antimutagenic activity against cyclophosphamide-induced mutagenicity in Albino mouse brain assessed as DNA level per gram of tissue at 14.16 mg/kg administered intragastrically for 1 week; assay type: functional
Mus musculus [24] = experiment: Antimutagenic activity in Albino mouse liver assessed as DNA level per gram of tissue at 14.16 mg/kg administered intragastrically for 1 week; assay type: functional
Mus musculus [25] = experiment: Antimutagenic activity against cyclophosphamide-induced mutagenicity in Albino mouse kidney assessed as DNA level per gram of tissue at 14.16 mg/kg administered intragastrically for 1 week; assay type: functional
Mus musculus [26] = experiment: Antimutagenic activity in Albino mouse brain assessed as RNA level per gram of tissue at 14.16 mg/kg administered intragastrically for 1 week; assay type: functional
Mus musculus [27] = experiment: Antimutagenic activity in mouse brain assessed as cholinesterase activity per microgram of tissue at 14.16 mg/kg administered intragastrically for 1 week; assay type: functional
Mus musculus [28] = experiment: Antimutagenic activity against cyclophosphamide-induced mutagenicity in Albino mouse kidney assessed as DNA level per gram of tissue at 10 mg/kg administered intragastrically for 1 week; assay type: functional
Mus musculus [29] = experiment: Antimutagenic activity against cyclophosphamide-induced mutagenicity in Albino mouse kidney assessed as RNA level per gram of tissue at 10 mg/kg administered intragastrically for 1 week; assay type: functional
Mus musculus [30] = experiment: Inhibition of cyclophosphamide-induced increase in micronuclei/polychromatic erythrocytes count in mouse at 10 mg/kg administered intragastrically for 1 week by micronuclei assay; assay type: functional; set-up: scale not given: the % may be the effect or the level left
Mus musculus [31] = experiment: Antimutagenic activity in mouse kidney assessed as protein level per gram of tissue at 10 mg/kg administered intragastrically for 1 week; assay type: functional
Mus musculus [32] = experiment: Antimutagenic activity in Albino mouse testes assessed as RNA level per gram of tissue at 10 mg/kg administered intragastrically for 1 week; assay type: functional, Testis
Mus musculus [33] = experiment: Antimutagenic activity in Albino mouse testes assessed as DNA level per gram of tissue at 10 mg/kg administered intragastrically for 1 week; assay type: functional, Testis
Mus musculus [34] = experiment: Antimutagenic activity in Albino mouse liver assessed as DNA level per gram of tissue at 10 mg/kg administered intragastrically for 1 week; assay type: functional
Mus musculus [35] = experiment: Antimutagenic activity against cyclophosphamide-induced mutagenicity in mouse testes assessed as protein level per gram of tissue at 10 mg/kg administered intragastrically for 1 week; assay type: functional, Testis
Mus musculus [36] = experiment: Antimutagenic against cyclophosphamide-induced mutagenicity in Albino mouse liver assessed as DNA level per gram of tissue at 10 mg/kg administered intragastrically for 1 week; assay type: functional
Mus musculus [37] = experiment: Antimutagenic activity against cyclophosphamide-induced mutagenicity in Albino mouse brain assessed as RNA level per gram of tissue at 10 mg/kg administered intragastrically for 1 week; assay type: functional
Mus musculus [38] = experiment: Antimutagenic activity against cyclophosphamide-induced mutagenicity in mouse liver assessed as protein level per gram of tissue at 10 mg/kg administered intragastrically for 1 week; assay type: functional
Mus musculus [39] = experiment: Antimutagenic activity against cyclophosphamide-induced mutagenicity in mouse brain assessed as cholinesterase activity per microgram of tissue at 10 mg/kg administered intragastrically for 1 week; assay type: functional
Mus musculus [40] = experiment: Antimutagenic activity against cyclophosphamide-induced mutagenicity in Albino mouse testes assessed as RNA level per gram of tissue at 10 mg/kg administered intragastrically for 1 week; assay type: functional, Testis
Mus musculus [41] = experiment: Antimutagenic activity against cyclophosphamide-induced mutagenicity in mouse brain assessed as peroxidase activity per microgram of tissue at 10 mg/kg administered intragastrically for 1 week; assay type: functional
Mus musculus [42] = experiment: Antimutagenic activity in Albino mouse brain assessed as DNA level per gram of tissue at 10 mg/kg administered intragastrically for 1 week; assay type: functional
Mus musculus [43] = experiment: Antimutagenic activity in Albino mouse liver assessed as RNA level per gram of tissue at 10 mg/kg administered intragastrically for 1 week; assay type: functional
Mus musculus [44] = experiment: Antimutagenic activity in Albino mouse kidney assessed as DNA level per gram of tissue at 10 mg/kg administered intragastrically for 1 week; assay type: functional
Mus musculus [45] = experiment: Antimutagenic activity in mouse brain assessed as peroxidase activity per microgram of tissue at 10 mg/kg administered intragastrically for 1 week; assay type: functional
Mus musculus [46] = experiment: Antimutagenic activity in mouse brain assessed as cholinesterase activity per microgram of tissue at 10 mg/kg administered intragastrically for 1 week; assay type: functional
Mus musculus [47] = experiment: Antimutagenic activity in Albino mouse kidney assessed as RNA level per gram of tissue at 10 mg/kg administered intragastrically for 1 week; assay type: functional
Mus musculus [48] = experiment: Antimutagenic activity in mouse brain assessed as protein level per gram of tissue at 10 mg/kg administered intragastrically for 1 week; assay type: functional
Mus musculus [49] = experiment: Antimutagenic activity against cyclophosphamide-induced mutagenicity in mouse brain assessed as protein level per gram of tissue at 10 mg/kg administered intragastrically for 1 week; assay type: functional
Mus musculus [50] = experiment: Antimutagenic activity against cyclophosphamide-induced mutagenicity in Albino mouse testes assessed as DNA level per gram of tissue at 10 mg/kg administered intragastrically for 1 week; assay type: functional, Testis
Mus musculus [51] = experiment: Antimutagenic activity against cyclophosphamide-induced mutagenicity in Albino mouse brain assessed as DNA level per gram of tissue at 10 mg/kg administered intragastrically for 1 week; assay type: functional
Mus musculus [52] = experiment: Antimutagenic activity against cyclophosphamide-induced mutagenicity in Albino mouse liver assessed as RNA level per gram of tissue at 10 mg/kg administered intragastrically for 1 week; assay type: functional
Mus musculus [53] = experiment: Antimutagenic activity in mouse liver assessed as protein level per gram of tissue at 10 mg/kg administered intragastrically for 1 week; assay type: functional
Mus musculus [54] = experiment: Antimutagenic activity in Albino mouse brain assessed as RNA level per gram of tissue at 10 mg/kg administered intragastrically for 1 week; assay type: functional
Mus musculus [55] = experiment: Antimutagenic activity against cyclophosphamide-induced mutagenicity in mouse kidney assessed as protein level per gram of tissue at 10 mg/kg administered intragastrically for 1 week; assay type: functional

COc1ccc2c(c1)c(CCNC(C)=O)c1sc(CC#N)nn12
Activity (Mus musculus [1]): 0.34 mg
Activity (Mus musculus [2]): 1.06 U/min
Activity (Mus musculus [3]): 0.33 mg
Activity (Mus musculus [4]): 0.32 mg
Activity (Mus musculus [5]): 0.3 mg
Activity (Mus musculus [6]): 0.23 mg
Activity (Mus musculus [7]): 3.49 g
Activity (Mus musculus [8]): 0.28 mg
Activity (Mus musculus [9]): 2.98 g
Activity (Mus musculus [10]): 4.94 g
Activity (Mus musculus [11]): 28%
Activity (Mus musculus [12]): 0.28 mg
Activity (Mus musculus [13]): 0.22 mg
Activity (Mus musculus [14]): 2.73 U
Activity (Mus musculus [15]): 7.87 g
Activity (Mus musculus [16]): 0.21 mg
Activity (Mus musculus [17]): 0.25 mg
Activity (Mus musculus [18]): 0.16 mg
Activity (Mus musculus [19]): 9.95 g
Activity (Mus musculus [20]): 2.71 g
Activity (Mus musculus [21]): 1.24 U/min
Activity (Mus musculus [22]): 0.19 mg
Activity (Mus musculus [23]): 0.21 mg
Activity (Mus musculus [24]): 0.27 mg
Activity (Mus musculus [25]): 0.35 mg
Activity (Mus musculus [26]): 0.19 mg
Activity (Mus musculus [27]): 3.3 U

COc1ccc2[nH]cc(CCNC(C)=O)c2c1 [MELATONIN]
Activity (Mus musculus [28]): 0.24 mg
Activity (Mus musculus [29]): 0.19 mg
Activity (Mus musculus [30]): 41%
Activity (Mus musculus [31]): 6.39 g
Activity (Mus musculus [32]): 0.34 mg
Activity (Mus musculus [33]): 0.26 mg
Activity (Mus musculus [34]): 0.26 mg
Activity (Mus musculus [35]): 2.96 g
Activity (Mus musculus [36]): 0.23 mg
Activity (Mus musculus [37]): 0.15 mg
Activity (Mus musculus [38]): 8.42 g
Activity (Mus musculus [39]): 2.63 U
Activity (Mus musculus [40]): 0.17 mg
Activity (Mus musculus [41]): 2.54 U/min
Activity (Mus musculus [42]): 0.32 mg
Activity (Mus musculus [43]): 0.44 mg
Activity (Mus musculus [44]): 0.25 mg
Activity (Mus musculus [45]): 3.38 U/min
Activity (Mus musculus [46]): 3.13 U
Activity (Mus musculus [47]): 0.38 mg
Activity (Mus musculus [48]): 2.48 g
Activity (Mus musculus [49]): 2.37 g
Activity (Mus musculus [50]): 0.23 mg
Activity (Mus musculus [51]): 0.21 mg
Activity (Mus musculus [52]): 0.28 mg
Activity (Mus musculus [53]): 8.42 g
Activity (Mus musculus [54]): 0.18 mg
Activity (Mus musculus [55]): 4.42 g
